Results taken from patent US20080249042A1, “All-Trans-Retinol: All-Trans-13,14-Dihydroretinol Saturase and Methods of Its Use” (UNIVERSITY OF WASHINGTON, priority 2004, published 2008).

Columns and labels:
RALDH1 = target: T1, RALDH1 (Mus musculus, UniProt P24549); assay: RALDH oxidation assay, transfected HEK-293S homogenate; assay type: biochemical; settings: cell homogenate with NAD, NADP, ATP
T1 construct: expressed in transfected cells; host or cells: GnTI-negative HEK-293S, transient; cell homogenate
T1 sequence (P24549 1-501): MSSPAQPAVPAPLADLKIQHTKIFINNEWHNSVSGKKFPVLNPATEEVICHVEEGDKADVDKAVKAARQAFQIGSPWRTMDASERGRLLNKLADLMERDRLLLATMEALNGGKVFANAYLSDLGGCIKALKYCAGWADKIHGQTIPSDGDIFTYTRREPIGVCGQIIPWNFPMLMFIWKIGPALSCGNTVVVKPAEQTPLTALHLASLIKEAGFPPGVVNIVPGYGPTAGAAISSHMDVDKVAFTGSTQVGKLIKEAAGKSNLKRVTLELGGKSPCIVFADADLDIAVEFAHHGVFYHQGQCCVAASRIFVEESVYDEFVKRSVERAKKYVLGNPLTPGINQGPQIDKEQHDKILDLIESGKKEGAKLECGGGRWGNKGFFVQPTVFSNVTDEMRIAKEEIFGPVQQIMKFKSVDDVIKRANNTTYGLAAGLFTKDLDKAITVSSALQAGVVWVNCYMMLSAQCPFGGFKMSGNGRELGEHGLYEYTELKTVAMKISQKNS
Procedure: (§1) RALDH Oxidation Assay. N-Acetylglucosaminyltransferase I-negative HEK-293S cells, obtained from Dr. G. Khorana (Massachusetts Institute of Technology, Boston) were cultured in Dulbecco's modified Eagle's medium, 10% fetal calf serum and maintained at 37° C., 5% CO2, and 100% humidity. Reeves, et al. Proc. Natl. Acad. Sci. U.S.A. 99:13419-13424, 2002. For RALDH enzyme assays, cells were transiently transfected with RALDH1, -2, -3, or -4 expression constructs using Lipofectamine 2000 (Invitrogen) according to the manufacturer's protocol. After 48 h post-transfection, the cells were collected by scraping and were centrifuged. The cell pellet was washed in 137 mM NaCl, 2.7 mM KCl, and 10 mM phosphate (pH 7.4), resuspended in 50 mM Tris (pH 8.0) containing 250 mM sucrose, and homogenized with the aid of a Dounce homogenizer. Cofactors were added to a final concentration of 5 mM NAD, 5 mM NADP, and 1 mM ATP. An aliquot of the cell lysate was boiled for 10 min at 95° C. to provide the control for the nonenzymatic reaction. Substrates in the form of all-trans-RAL or a mixture of isomers of DRAL were added to the cell lysates at a final concentration of 60 μM. The reactions were allowed to proceed for 2 h at 37° C. with shaking and were stopped by the addition of 2 volumes of CH3CN. […] After each run, the column was washed with mixture B (60% tert-butylmethyl ether, 40% methanol) for 10 min at 1.6 ml/min, followed by re-equilibration in phase A. The elution of RA and DRA isomers was monitored at 340 and 290 nm, respectively. The peaks were identified based on their spectra and coelution with standards. The cell lysate was examined for expression of RALDH1-4 by SDS-PAGE and immunoblotting of the V5 epitope-tagged recombinant protein using an anti-V5 epitope monoclonal antibody (Invitrogen).

RALDH2 = target: T2, RALDH2 (Mus musculus, UniProt Q62148); assay: as above; assay type: biochemical; settings: cell homogenate with NAD, NADP, ATP
T2 construct: The full-length cDNA of RALDH2 (MGC:76772, IMAGE: 30471325), RALDH4 (MGC:46977, IMAGE:4223059), and CYP26A1 (MGC:13860, IMAGE:4210893) mRNA was obtained; expressed in transfected cells; host or cells: GnTI-negative HEK-293S, transient; cell homogenate
T2 sequence (Q62148 1-518): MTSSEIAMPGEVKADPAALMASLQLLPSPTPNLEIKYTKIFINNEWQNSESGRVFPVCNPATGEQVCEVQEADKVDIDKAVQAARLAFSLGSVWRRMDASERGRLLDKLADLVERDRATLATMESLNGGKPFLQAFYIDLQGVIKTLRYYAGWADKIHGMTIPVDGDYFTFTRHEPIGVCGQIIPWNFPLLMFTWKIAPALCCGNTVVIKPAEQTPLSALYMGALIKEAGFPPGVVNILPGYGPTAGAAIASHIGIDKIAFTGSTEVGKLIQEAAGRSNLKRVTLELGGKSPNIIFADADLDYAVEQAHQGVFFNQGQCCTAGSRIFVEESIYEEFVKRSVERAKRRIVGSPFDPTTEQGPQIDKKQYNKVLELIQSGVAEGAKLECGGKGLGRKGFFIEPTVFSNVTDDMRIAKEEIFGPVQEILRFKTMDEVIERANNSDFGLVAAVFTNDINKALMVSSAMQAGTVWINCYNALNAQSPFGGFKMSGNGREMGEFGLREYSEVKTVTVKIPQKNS
Procedure: as §1

RALDH4 = target: T3, RALDH4 (Mus musculus, UniProt Q8BH00); assay: as above; assay type: biochemical; settings: cell homogenate with NAD, NADP, ATP
T3 construct: The full-length cDNA of RALDH2 (MGC:76772, IMAGE: 30471325), RALDH4 (MGC:46977, IMAGE:4223059), and CYP26A1 (MGC:13860, IMAGE:4210893) mRNA was obtained; expressed in transfected cells; host or cells: GnTI-negative HEK-293S, transient; cell homogenate
T3 sequence (Q8BH00 1-487): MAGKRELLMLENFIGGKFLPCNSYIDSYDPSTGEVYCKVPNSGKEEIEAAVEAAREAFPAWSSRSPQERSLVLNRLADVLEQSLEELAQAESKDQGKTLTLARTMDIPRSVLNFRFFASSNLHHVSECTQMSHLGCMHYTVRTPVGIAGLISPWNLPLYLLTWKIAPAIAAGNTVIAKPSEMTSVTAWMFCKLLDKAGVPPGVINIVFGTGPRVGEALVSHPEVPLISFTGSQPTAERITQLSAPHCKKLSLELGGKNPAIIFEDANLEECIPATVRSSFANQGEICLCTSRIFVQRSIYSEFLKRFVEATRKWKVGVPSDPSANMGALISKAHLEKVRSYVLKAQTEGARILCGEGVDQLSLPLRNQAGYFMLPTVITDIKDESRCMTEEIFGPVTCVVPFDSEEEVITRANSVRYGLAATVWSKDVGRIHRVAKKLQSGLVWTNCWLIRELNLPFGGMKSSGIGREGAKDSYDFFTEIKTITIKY
Procedure: as §1

RALDH3 = target: T4, RALDH3 (Mus musculus, UniProt Q9JHW9); assay: as above; assay type: biochemical; settings: cell homogenate with NAD, NADP, ATP
T4 construct: expressed in transfected cells; host or cells: GnTI-negative HEK-293S, transient; cell homogenate
T4 sequence (Q9JHW9 1-512): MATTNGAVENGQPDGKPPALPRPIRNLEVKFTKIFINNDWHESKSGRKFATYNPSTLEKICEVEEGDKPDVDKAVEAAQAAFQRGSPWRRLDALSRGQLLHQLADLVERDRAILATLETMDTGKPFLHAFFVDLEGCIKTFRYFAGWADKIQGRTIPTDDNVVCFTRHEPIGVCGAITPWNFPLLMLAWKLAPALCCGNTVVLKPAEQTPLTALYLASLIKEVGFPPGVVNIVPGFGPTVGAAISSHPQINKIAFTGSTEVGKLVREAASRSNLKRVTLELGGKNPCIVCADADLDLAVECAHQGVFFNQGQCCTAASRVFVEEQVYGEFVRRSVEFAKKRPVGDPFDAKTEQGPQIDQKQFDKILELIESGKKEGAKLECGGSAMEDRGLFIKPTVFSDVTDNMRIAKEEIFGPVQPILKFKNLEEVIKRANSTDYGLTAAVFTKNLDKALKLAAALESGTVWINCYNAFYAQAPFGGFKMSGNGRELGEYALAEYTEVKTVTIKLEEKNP
Procedure: as §1

mouse RALDH1 = target: T5, mouse RALDH1 (Mus musculus, UniProt P24549); settings: cited from earlier work
T5 sequence (P24549 1-501): T1 sequence (P24549 1-501)

mouse RALDH2 = target: T6, mouse RALDH2 (Mus musculus, UniProt Q62148); settings: cited from earlier work
T6 sequence (Q62148 1-518): T2 sequence (Q62148 1-518)

For `CC(C=CC1=C(C)CCCC1(C)C)=CC=CC(C)CC=O` (stereo not drawn) [all-trans-DRAL, 13,14-dihydroretinaldehyde], the “Oxidation to the acid by RALDH1” value (RALDH1) was “less efficient”, the “Oxidation to the acid by RALDH2” value (RALDH2) was “efficiently converted” and the “Oxidation to the acid by RALDH4” value (RALDH4) was “less efficient”. The “Oxidation to the acid by RALDH3” value (RALDH3) was “efficiently converted”.

With `CC1=C(/C=C/C(C)=C/C=C/C(C)=C/C=O)C(C)(C)CCC1` [all-trans-RAL, all-trans-retinal, reference compound] the “Oxidation to the acid by RALDH1” value (RALDH1) was “less efficient”, the “Oxidation to the acid by RALDH2” value (RALDH2) was “efficiently converted” and the “Oxidation to the acid by RALDH4” value (RALDH4) was “less efficient”. The “Oxidation to the acid by RALDH3” value (RALDH3) was “efficiently converted”, the Km (mouse RALDH1) was 11.6 µM and the Km (mouse RALDH2) was 0.66 µM.
